According to patent publication US20250281500A1, “FUSED AMINO PYRIMIDINE COMPOUNDS AND PRIDOPIDINE FOR TREATMENT OF HUNTINGTON’S DISEASE” (Ovid Therapeutics Inc., priority 2024, published 2025):

What was measured:
mice = test: KA induced ongoing SE, EEG, treatment with DZ or DZ/Compound A 2 h after KA; assay type: in vivo; conditions: given 2 h after KA
Procedure: EEG recordings and analysis. WT C57Bl/6J adult male mice (12 weeks) were anesthetized with isofluorane and implanted with EEG/EMG electrodes and allowed to recover for 7 days prior to experimentation. […] 2 h following KA administration mice were injected with a saturating concentration of diazepam (DZ) 10 mg/kg (IP) and recordings were extended for a further 60 min. […] LabChart 8 software was used for data analysis. Epileptiform activity was identified by changes in the amplitude of electrographic activity characterized by consistent changes in the power of the Fast Fourier transform (FFT) of the EEG and abnormal activity characterized by periods of rhythmic spiking lasting longer than 30 s (Moore et al., 2017, supra; Silayeva et al., 2015, supra; Sivakumaran et al., J. Neurosci. 35, 8291-8296 (2015)).
To evaluate the potential of KCC2 activators to terminate ongoing SE, the KA model described above was employed. Mice were injected with KA (20 mg/Kg; IP). […] Spectral data were then subjected to FFT and the total EEG power between 1-100 Hz of the 2 h following KA treatment (pre-drug) and 30 min following their injection (post-drug) were compared (FIG. 6B). In mice treated with DZ alone variable effects were observed, from large increases to modest reductions in EEG power, but these effects were not significant (FIG. 6C; pre=1.1±0.2×10^−6, post=4.4±7.4×10^−7 μV^2, p=0.214, n=13-14 mice). […]

[1] = system: panel of 144 protein kinases; test: SelectScreen panel of 144 protein kinases; assay type: biochemical; conditions: incl. PKC isoforms, OSR1, SPAK, WNK

SMILES | mice insensitive to the effects of DZ on EEG power (mice) | activity of a panel of 144 protein kinases [1]
CN1C(=O)CN=C(c2ccccc2)c2cc(Cl)ccc21 [DZ, diazepam, reference compound] | 62% | 
C[C@@H]1CN(c2nc3c(c(Nc4ccc(C5CCCCC5)cc4)n2)COC3)CCO1 [Compound A, (R)-N-(4-cyclohexylphenyl)-2-(2-methylmorpholino)-5,7-dihydrofuro[3,4-d]pyrimidin-4-amine] | abolished | did not modify the activity
